# According to US20230011571A1, “SMALL MOLECULE FURIN INHIBITORS FOR TREATING INFECTIOUS DISEASES” (BP Asset V, Inc., priority 2019, published 2023):
# Tests used:
# Type in all cases: cell-based
# Marburg virus (MARV) = assay: organism not typed; conditions: Vero, 72 h, read-out: Percent viral inhibition MARV
# dengue virus (DENV) = assay: microbe, parasite or virus in culture; conditions: Dengue virus, Vero, 120 h, read-out: Percent viral inhibition DENY
# [1] = tested on: Chikungunya virus (CHIKV); assay: microbe, parasite or virus in culture; conditions: Chikungunya virus, Vero, 48 h, read-out: Percent viral inhibition CHKV
Structure (SMILES),inhibition at 1 µM (Marburg virus (MARV)) [%],inhibition at 1 µM (dengue virus (DENV)) [%],inhibition at 1 µM [1] [%]
"O=C(O)CCC1CCN(Cc2cc(Oc3ccc(N4CCN(CCO)CC4)nc3)nc(-c3cc(Cl)cc(Cl)c3)c2)CC1 [Example 314, 3-(1-((2-(3,5-dichlorophenyl)-6-((6-(4-(2-hydroxyethyl)piperazin-1-yl)pyridin-3-yl)oxy)pyridin-4-yl)methyl)piperidin-4-yl)propanoic acid]",52.1,7.86,32
"CC(=O)NCC1CCN(Cc2cc(Oc3cnc(N4CCN(CC(O)C(=O)O)CC4)nc3)nc(-c3cc(Cl)cc(Cl)c3)c2)CC1 (stereo not drawn) [Example 316, 3-(4-(5-((4-((4-(acetamidomethyl)piperidin-1-yl)methyl)-6-(3,5-dichlorophenyl)pyridin-2-yl)oxy)pyrimidin-2-yl)piperazin-1-yl)-2-hydroxypropanoic acid]",54.4,55.9,30.6
"C[C@@H](O)CN1CCN(c2ncc(Oc3cc(CN4CCC(OCC(=O)O)CC4)cc(-c4cc(Cl)cc(Cl)c4)n3)cn2)CC1 [Example 317, (R)-2-((1-((2-(3,5-dichlorophenyl)-6-((2-(4-(2-hydroxypropyl)piperazin-1-yl)pyrimidin-5-yl)oxy)pyridin-4-yl)methyl)piperidin-4-yl)oxy)acetic acid]",53.6,20.2,14.8
"CN1CCN(c2ncc(Oc3cc(CN4CCC(CB(O)O)CC4)cc(-c4cc(Cl)cc(Cl)c4)n3)cn2)CC1 [Example 318, ((1-((2-(3,5-dichlorophenyl)-6-((2-(4-methylpiperazin-1-yl)pyrimidin-5-yl)oxy)pyridin-4-yl)methyl)piperidin-4-yl)methyl)boronic acid]",31.6,44.6,15.3
"CN1CCN(c2ncc(Oc3cc(CN4CCC(CP(C)(C)=O)CC4)cc(-c4cc(Cl)cc(Cl)c4)n3)cn2)CC1 [Example 320, ((1-((2-(3,5-dichlorophenyl)-6-((2-(4-methylpiperazin-1-yl)pyrimidin-5-yl)oxy)pyridin-4-yl)methyl)piperidin-4-yl)methyl)dimethylphosphineoxide]",52.5,15.3,17.5
"CN1CCN(c2ncc(Oc3cc(CN4CC[C@@H]5[C@H](CC4)[C@H]5C(=O)O)cc(-c4cc(Cl)cc(Cl)c4)n3)cn2)CC1 [Example 321, (1R,7S,8r)-4-((2-(3,5-dichlorophenyl)-6-((2-(4-methylpiperazin-1-yl)pyrimidin-5-yl)oxy)pyridin-4-yl)methyl)-4-azabicyclo[5.1.0]octane-8-carboxylic acid]",43.4,27.3,23.8
"CN1CCN(c2ncc(Oc3cc(CN4CCC(CCB(O)O)CC4)cc(-c4cc(Cl)cc(Cl)c4)n3)cn2)CC1 [Example 323, (2-(1-((2-(3,5-dichlorophenyl)-6-((2-(4-methylpiperazin-1-yl)pyrimidin-5-yl)oxy)pyridin-4-yl)methyl)piperidin-4-yl)ethyl)boronic acid]",30.7,0,5.87
"COC(=O)NC(=O)NCC1CCN(Cc2cc(Oc3cnc(N4CCN(C)CC4)nc3)nc(-c3cc(Cl)cc(Cl)c3)c2)CC1 [Example 325, N-1-((1-((2-(3,5-dichlorophenyl)-6-((2-(4-methylpiperazin-1-yl)pyrimidin-5-yl)oxy)pyridin-4-yl)methyl)piperidin-4-yl)methyl)-N′-methoxyl-carbonylurea]",0,5.08,0
"CN1CCN(c2ncc(Oc3cc(CN4CCC(CNC(=O)NS(C)(=O)=O)CC4)cc(-c4cc(Cl)cc(Cl)c4)n3)cn2)CC1 [Example 326, N-(((1-((2-(3,5-dichlorophenyl)-6-((2-(4-methylpiperazin-1-yl)pyrimidin-5-yl)oxy)pyridin-4-yl)methyl)piperidin-4-yl)methyl)carbamoyl)methane-sulfonamide]",63.9,45.5,22.7
"CC(=O)NC(=O)NCC1CCN(Cc2cc(Oc3cnc(N4CCN(C)CC4)nc3)nc(-c3cc(Cl)cc(Cl)c3)c2)CC1 [Example 327, N-(((1-((2-(3,5-dichlorophenyl)-6-((2-(4-methylpiperazin-1-yl)pyrimidin-5-yl)oxy)pyridin-4-yl)methyl)piperidin-4-yl)methyl)carbamoyl)acetamide]",63.8,0,0
"CN1CCN(c2ncc(Oc3cc(CN4CCC(NC(=O)NS(C)(=O)=O)CC4)cc(-c4cc(Cl)cc(Cl)c4)n3)cn2)CC1 [Example 328, N-((1-((2-(3,5-dichlorophenyl)-6-((2-(4-methylpiperazin-1-yl)pyrimidin-5-yl)oxy)pyridin-4-yl)methyl)piperidin-4-yl)carbamoyl)methanesulfonamide]",49.5,55.8,37.5
"CN1CCN(c2ncc(Oc3cc(CN4CCC(NC(N)=O)CC4)cc(-c4cc(Cl)cc(Cl)c4)n3)cn2)CC1 [Example 329, 1-(1-((2-(3,5-dichlorophenyl)-6-((2-(4-methylpiperazin-1-yl)pyrimidin-5-yl)oxy)pyridin-4-yl)methyl)piperidin-4-yl)urea]",42.3,19.2,22.2
"CN1CCN(c2ncc(Oc3cc(CN4CCO[C@H](CO)CC4)cc(-c4cc(Cl)cc(Cl)c4)n3)cn2)CC1 [Example 330, (S)-(4-((2-(3,5-dichlorophenyl)-6-((2-(4-methylpiperazin-1-yl)pyrimidin-5-yl)oxy)pyridin-4-yl)methyl)-1,4-oxazepan-7-yl)methanol]",58.7,26.4,24.6
"CN1CCN(c2ncc(Oc3cc(CN4CCC(P(C)(C)=O)CC4)cc(-c4cc(Cl)cc(Cl)c4)n3)cn2)CC1 [Example 331, (1-((2-(3,5-dichlorophenyl)-6-((2-(4-methylpiperazin-1-yl)pyrimidin-5-yl)oxy)pyridin-4-yl)methyl)piperidin-4-yl)dimethylphosphineoxide]",69.3,56.5,22.6
"O=C(O)CC1CCN(Cc2cc(Oc3cnc(N4CCN5CCC4C5)nc3)nc(-c3cc(Cl)cc(Cl)c3)c2)CC1 (stereo not drawn) [Example 334, 2-(1-((2-((2-(1,4-diazabicyclo[3.2.1]octan-4-yl)pyrimidin-5-yl)oxy)-6-(3,5-dichlorophenyl)pyridin-4-yl)methyl)piperidin-4-yl)acetic acid]",41.4,20.8,29.6
"O=C(O)C1[C@H]2CCN(Cc3cc(Oc4cnc(N5CCN6CCC5C6)nc4)nc(-c4cc(Cl)cc(Cl)c4)c3)CC[C@@H]12 (stereo partly drawn) [Example 337, (1R,7S,8r)-4-((2-((2-(1,4-diazabicyclo[3.2.1]octan-4-yl)pyrimidin-5-yl)oxy)-6-(3,5-dichlorophenyl)pyridin-4-yl)methyl)-4-azabicyclo[5.1.0] octane-8-carboxylic acid]",37.6,0,15.9
"FC1CCN(Cc2cc(Oc3cnc(N4CCN5CCC4C5)nc3)nc(-c3cc(Cl)cc(Cl)c3)c2)CC1 (stereo not drawn) [Example 338, 4-(5-((6-(3,5-dichlorophenyl)-4-((4-fluoropiperidin-1-yl)methyl)pyridin-2-yl)oxy)pyrimidin-2-yl)-1,4-diazabicyclo[3.2.1]octane]",12.2,55.4,19.3
"CN1CCN(c2cnc(Oc3cc(CN4CCC(CC(=O)O)CC4)cc(-c4cc(Cl)cc(Cl)c4)n3)cn2)CC1 [Example 339, 2-(1-((2-(3,5-dichlorophenyl)-6-((5-(4-methylpiperazin-1-yl)pyrazin-2-yl)oxy)pyridin-4-yl)methyl)piperidin-4-yl)acetic acid]",52.1,0,23.6
"CC(CCN1CCN(c2cnc(Oc3cc(CN4CCC(CCO)CC4)cc(-c4cc(Cl)cc(Cl)c4)n3)cn2)CC1)C(=O)O (stereo not drawn) [Example 341, 4-(4-(5-((6-(3,5-dichlorophenyl)-4-((4-(2-hydroxyethyl)piperidin-1-yl)methyl)pyridin-2-yl)oxy)pyrazin-2-yl)piperazin-1-yl)-2-methylbutanoic acid]",50.5,31.2,29.2
"CC(C)(O)CN1CCN(c2cnc(Oc3cc(CN4CCC(CC(=O)O)CC4)cc(-c4cc(Cl)cc(Cl)c4)n3)cn2)CC1 [Example 343, 2-(1-((2-(3,5-dichlorophenyl)-6-((5-(4-(2-hydroxy-2-methylpropyl)piperazin-1-yl)pyrazin-2-yl)oxy)pyridin-4-yl)methyl)piperidin-4-yl)acetic acid]",51,28.6,35.7
"O=C(O)CC1CCN(Cc2cc(Oc3ccc(N4CCN5CCC4C5)nn3)nc(-c3cc(Cl)cc(Cl)c3)c2)CC1 (stereo not drawn) [Example 344, 2-(1-((2-((6-(1,4-diazabicyclo[3.2.1]octan-4-yl)pyridazin-3-yl)oxy)-6-(3,5-dichlorophenyl)pyridin-4-yl)methyl)piperidin-4-yl)acetic acid]",43.5,77.9,26.6
"CCN1CCCN(c2cnc(Oc3cc(CN4CCC(CC(=O)O)CC4)cc(-c4cc(Cl)cc(Cl)c4)n3)cn2)CC1 [Example 345, 2-(1-((2-(3,5-dichlorophenyl)-6-((5-(4-ethyl-1,4-diazepan-1-yl)pyrazin-2-yl)oxy)pyridin-4-yl)methyl)piperidin-4-yl)acetic acid]",57,44,22.1
"CN1C[C@@H]2C[C@H]1CN2c1cnc(Oc2cc(CN3CCC(CC(=O)O)CC3)cc(-c3cc(Cl)cc(Cl)c3)n2)cn1 [Example 346, 2-(1-((2-(3,5-dichlorophenyl)-6-((5-((1S,4S)-5-methyl-2,5-diazabicyclo[2.2.1]heptan-2-yl)pyrazin-2-yl)oxy)pyridin-4-yl)methyl)piperidin-4-yl)acetic acid]",56.8,54.6,9.36
